Measured values taken from patent publication US9790221B2, “Heteroaryl compounds as IRAK inhibitors and uses thereof” (Merck Patent GmbH, priority 2014, dated 2017).
Structures can show the parent of a compound that is named as a salt.

What was measured:
[1] = molecular target: IRAK1 (His-TEV-IRAK1 (194-712)) (Homo sapiens (Human), UniProt P51617); assay: IRAK1 enzymatic assay; type: biochemical
Procedure, shortened: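 Recombinant His-TEV-IRAK1 (194-712), 15 ng/well, autophosphorylation with 1 μM ATP plus [33P]ATP, 3 h at 30° C in Hepes pH 7.0 buffer with MgCl2, DTT, EGTA, BSA and Triton; compounds from 20 µM to 1 nM. The reaction was stopped with EDTA, and radioactivity was counted in streptavidin FlashPlates.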

IRAK4 = IRAK4 (Homo sapiens (Human), UniProt Q9NWZ3); assay: IRAK4 enzymatic assay; type: biochemical
Procedure, shortened: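 Recombinant His-TEV-IRAK4 (20 ng/well) phosphorylating biotinylated STK1 peptide (300 nM) with 2 μM ATP plus [^33P]ATP, 3 h at 30° C in pH 7.0 Hepes buffer with Mg2+ and Mn2+. Compounds 20 µM to 1 nM; EDTA stop, radioactivity captured on streptavidin FlashPlates.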

[2] = test system: TLR7 induced IL-6 secretion in human mononuclear cells (PBMC's); assay: TLR7 induced IL-6 in human PBMC's; type: cell-based; details: Homo sapiens, PBMC, read-out: TLR7 induced IL-6 secretion in hPBMC's (IC50)
Procedure: TLR7 Induced IL-6 in Human PBMC's
Human PBMC assay was used as one of the functional assay a to monitor the activity of IRAK1 and IRAK4 small molecule inhibitors on TLR7 induced IL-6 secretion in human mononuclear cells (PBMC's). Human PBMCs were prepared from buffy coats (whole blood enriched with leukocytes and platelets) obtained from healthy volunteers used either fresh or frozen are plated in assay media (RPMI+2% P/S/L-glu+10% HI-FBS) and pre-treated with compounds in DMSO/media (range of concentrations from 25 uM to 0.4 nM) or controls (0.25% DMSO) for 30 minutes at 37° C. in assay media. Following pre-treatment with IRAK1 and IRAK4 inhibitors, PBMC's were stimulated with TLR7 specific ligand (2 uM) overnight (16-18 hrs) at 37° C. After incubation supernatant was transferred to 384 well PE AlphaPlate-384 (6005350) and IL-6 is quantified using Perkin Elmer IL-6 Alpha LISA kit (AL223C). Plates were read on an Envision® plate reader with Alpha Technology®.

IRAK1 (His-TEV-IRAK1 (194-712)), sequence (P51617 194-712): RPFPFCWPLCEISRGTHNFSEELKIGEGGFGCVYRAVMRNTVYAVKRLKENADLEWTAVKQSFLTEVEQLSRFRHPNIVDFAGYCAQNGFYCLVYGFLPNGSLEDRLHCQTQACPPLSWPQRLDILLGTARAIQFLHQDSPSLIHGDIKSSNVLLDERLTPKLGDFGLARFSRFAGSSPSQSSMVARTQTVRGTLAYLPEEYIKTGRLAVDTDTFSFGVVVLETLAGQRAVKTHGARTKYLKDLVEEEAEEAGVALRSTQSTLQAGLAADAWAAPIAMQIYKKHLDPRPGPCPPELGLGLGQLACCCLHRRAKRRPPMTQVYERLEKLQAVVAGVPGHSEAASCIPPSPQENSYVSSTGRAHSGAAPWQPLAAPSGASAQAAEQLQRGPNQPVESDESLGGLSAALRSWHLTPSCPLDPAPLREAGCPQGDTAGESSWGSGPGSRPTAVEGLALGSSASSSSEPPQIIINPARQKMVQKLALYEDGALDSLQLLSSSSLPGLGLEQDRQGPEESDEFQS
IRAK4, sequence (Q9NWZ3 whole entry): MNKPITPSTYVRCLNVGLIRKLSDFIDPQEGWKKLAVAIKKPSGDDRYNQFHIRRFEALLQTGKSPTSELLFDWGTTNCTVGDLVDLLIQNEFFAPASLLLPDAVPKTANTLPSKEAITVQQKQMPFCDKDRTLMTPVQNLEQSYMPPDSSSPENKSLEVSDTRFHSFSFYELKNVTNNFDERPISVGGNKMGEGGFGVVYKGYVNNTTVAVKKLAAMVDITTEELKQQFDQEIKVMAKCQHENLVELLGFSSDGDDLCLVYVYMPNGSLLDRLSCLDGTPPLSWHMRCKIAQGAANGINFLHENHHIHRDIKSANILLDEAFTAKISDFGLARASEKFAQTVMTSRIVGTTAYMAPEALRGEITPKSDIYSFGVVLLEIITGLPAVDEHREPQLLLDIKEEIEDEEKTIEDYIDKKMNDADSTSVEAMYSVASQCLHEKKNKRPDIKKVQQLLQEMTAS

| Structure (SMILES) | IC50 [1] | IC50 (IRAK4) | IC50 [2] |
| --- | --- | --- | --- |
| Cn1cc(-c2cccc(-c3ncc(-c4cnn(C)c4)c(N[C@H]4CCC[C@@H]4O)n3)c2)cn1 (racemic) [Example 94] | 100 to 1000 nM | < 100 nM | 1000 to 5000 nM |
| Cn1cc(-c2cccc(-c3ncc(-c4ccn(C)n4)c(N[C@@H]4CC[C@H](N)C4)n3)c2)cn1 (racemic) [Example 107] | 100 to 1000 nM | 100 to 1000 nM | 100 to 1000 nM |
| Cn1cc(-c2cccc(-c3ncc(-c4cnn(C)c4)c(N[C@@H]4CC[C@H](N)C4)n3)c2)cn1 (racemic) [Example 108] | 100 to 1000 nM | < 100 nM | 100 to 1000 nM |
| Cn1cc(-c2cccc(-c3ncc(-c4cnn(C)c4)c(N[C@@H]4CNC[C@H]4O)n3)c2)cn1 (racemic) [Example 113] | 100 to 1000 nM | < 100 nM | 1000 to 5000 nM |
| Cn1cc(-c2cccc(-c3ncc(-c4ccn(C)n4)c(N[C@@H]4CCC[C@@H](O)[C@H]4O)n3)c2)cn1 (racemic) [Example 131] | 1000 to 5000 nM | < 100 nM | 1000 to 5000 nM |
| Cn1cc(-c2cccc(-c3ncc(-c4cnn(C)c4)c(N[C@@H]4CCC[C@@H](O)[C@H]4O)n3)c2)cn1 (racemic) [Example 133, (1R,2S,3R)-3-{5-(1-Methyl-1H-pyrazol-4-yl)-2-[3-(1-methyl-1H-pyrazol-4-yl)-phenyl]-pyrimidin-4-ylamino}-cyclohexane-1,2-diol] | 100 to 1000 nM | < 100 nM | 100 to 1000 nM |
| Cn1cc(-c2cccc(-c3ncc(-c4cnn(C)c4)c(O[C@@H]4CCC[C@@H](N)[C@@H]4O)n3)c2)cn1 (racemic) [Example 134, (1S,2R,6R)-2-Amino-6-{5-(1-methyl-1H-pyrazol-4-yl)-2-[3-(1-methyl-1H-pyrazol-4-yl)-phenyl]-pyrimidin-4-yloxy}-cyclohexanol] | < 100 nM | < 100 nM | < 100 nM |
| Cn1cc(-c2cccc(-c3ncc(-c4cnn(C)c4)c(N[C@H]4CCC[C@@H](O)C4)n3)c2)cn1 (racemic) [Example 161] | < 100 nM | < 100 nM | 100 to 1000 nM |
| Cn1cc(-c2cccc(-c3ncc(-c4cnn(C)c4)c(N[C@H]4CCC[C@H](O)C4)n3)c2)cn1 (racemic) [Example 162] | 100 to 1000 nM | < 100 nM | 100 to 1000 nM |
| Cn1cc(-c2cccc(-c3ncc(-c4cnn(C)c4)c(NC4CCC(O)C4)n3)c2)cn1 (racemic) [Example 167] | 1000 to 5000 nM | < 100 nM | 1000 to 5000 nM |
| CN[C@H]1CCC[C@H](Nc2nc(-c3cccc(-c4cnn(C)c4)c3)ncc2-c2cnn(C)c2)[C@@H]1O (racemic) [Example 281, (1R,2S,6S)-2-Methylamino-6-{5-(1-methyl-1-pyrazol-4-yl)-2-[3-(1-methyl-1H-pyrazol-4-yl)-phenyl]-pyrimidin-4-ylamino}-cyclohexanol] | > 5000 nM | < 100 nM | 1000 to 5000 nM |
| Cn1cc(-c2cccc(-c3ncc(-c4cnn(C)c4)c(N[C@H]4CCC[C@H](F)[C@H]4O)n3)c2)cn1 (single isomer, unassigned) [Example 285] | 100 to 1000 nM | < 100 nM | 100 to 1000 nM |
| Cn1cc(-c2cccc(-c3ncc(-c4cnn(C)c4)c(N[C@@H]4CCC[C@@H](F)[C@@H]4O)n3)c2)cn1 (single isomer, unassigned) [Example 286] | 100 to 1000 nM | < 100 nM | 100 to 1000 nM |
| Cn1cc(-c2cccc(-c3ncc(-c4cnn(C)c4)c(N[C@H]4CCCC[C@@H](O)[C@H]4O)n3)c2)cn1 (stereo in doubt) [Example 248] | 100 to 1000 nM | < 100 nM | 100 to 1000 nM |
| Cn1cc(-c2cccc(-c3ccc(-c4cnn(C5CCNCC5)c4)cn3)c2)cn1 [Example 1, 2-[3-(1-Methyl-1H-pyrazol-4-yl)-phenyl]-5-(1-piperidin-4-yl-1H-pyrazol-4-yl)-pyridine Hydrochloride] | > 5000 nM | 100 to 1000 nM | 1000 to 5000 nM |
| Cn1cc(-c2cccc(-c3ncc(-c4cnn(C)c4)c(NCC4CCNCC4)n3)c2)cn1 [Example 7, {5-(1-Methyl-1H-pyrazol-4-yl)-2-[3-(1-methyl-1H-pyrazol-4-yl)-phenyl]-pyrimidin-4-yl}-piperidin-4-ylmethyl-amine] | 100 to 1000 nM | 100 to 1000 nM | 1000 to 5000 nM |
| Cn1cc(-c2cccc(-c3ncc(-c4cnn(C)c4)c(OCC4(C)COC4)n3)c2)cn1 [Example 9, 4-(3-Methyl-oxetan-3-ylmethoxy)-5-(1-methyl-1H-pyrazol-4-yl)-2-[3-(1-methyl-1H-pyrazol-4-yl)-phenyl]-pyrimidine] | 1000 to 5000 nM | 100 to 1000 nM | 1000 to 5000 nM |
| Cn1cc(-c2cccc(-c3ncc(-c4ccn(C)n4)c(NCC4CCCNC4)n3)c2)cn1 (stereo not drawn) [Example 10, {5-(1-Methyl-1H-pyrazol-3-yl)-2-[3-(1-methyl-1H-pyrazol-4-yl)-phenyl]-pyrimidin-4-yl}-piperidin-3-ylmethyl-amine] | 100 to 1000 nM | 100 to 1000 nM | 1000 to 5000 nM |
| Cn1cc(-c2cccc(-c3ncc(-c4cnn(C)c4)c(OCC4COC4)n3)c2)cn1 [Example 11, 5-(1-Methyl-1H-pyrazol-4-yl)-2-[3-(1-methyl-1H-pyrazol-4-yl)-phenyl]-4-(oxetan-3-ylmethoxy)-pyrimidine] | > 5000 nM | 100 to 1000 nM | 1000 to 5000 nM |
| Cn1cc(-c2cccc(-c3ncc(-c4cnn(C)c4)c(NCC4CCOCC4)n3)c2)cn1 [Example 13, {5-(1-Methyl-1H-pyrazol-4-yl)-2-[3-(1-methyl-1H-pyrazol-4-yl)-phenyl]-pyrimidin-4-yl}-(tetrahydro-pyran-4-ylmethyl)-amine] | 100 to 1000 nM | 100 to 1000 nM | 1000 to 5000 nM |
| Cc1nnc(-c2cnc(-c3cccc(-c4cnn(C)c4)c3)nc2NC(C)C)s1 [Example 15, Isopropyl-[2-[3-(1-methyl-1H-pyrazol-4-yl)-phenyl]-5-(5-methyl-[1,3,4]thiadiazol-2-yl)-pyrimidin-4-yl]-amine] | 100 to 1000 nM | < 100 nM | 100 to 1000 nM |
| CC(C)Nc1nc(-c2cccc(-c3cnn(C)c3)c2)ncc1-c1nnc(C(=O)N2CC[C@@H](O)C2)s1 [Example 16, ((R)-3-Hydroxy-pyrrolidin-1-yl)-(5-{4-isopropylamino-2-[3-(1-methyl-1H-pyrazol-4-yl)-phenyl]-pyrimidin-5-yl}-[1,3,4]thiadiazol-2-yl)-methanone] | 100 to 1000 nM | < 100 nM | 100 to 1000 nM |
| Cc1nnc(-c2cnc(-c3cccc(-c4cnn(C)c4)c3)nc2NC2CCCNC2)s1 (stereo not drawn) [Example 17, [2-[3-(1-Methyl-1H-pyrazol-4-yl)-phenyl]-5-(5-methyl-[1,3,4]thiadiazol-2-yl)-pyrimidin-4-yl]-piperidin-3-yl-amine Hydrochloride] | > 5000 nM | < 100 nM | 100 to 1000 nM |
| COC(=O)c1nnc(-c2cnc(-c3cccc(-c4cnn(C)c4)c3)nc2NC2CCCNC2)s1 (stereo not drawn) [Example 18, 5-[2-[3-(1-Methyl-1H-pyrazol-4-yl)-phenyl]-4-(piperidin-3-ylamino)-pyrimidin-5-yl]-[1,3,4]thiadiazole-2-carboxylic Acid Methyl Ester Hydrochloride] | > 5000 nM | < 100 nM | 100 to 1000 nM |
| COC(=O)c1nnc(-c2cnc(-c3cccc(-c4cnn(C)c4)c3)nc2NCC2CNC2)s1 [Example 19, 5-{4-[(Azetidin-3-ylmethyl)-amino]-2-[3-(1-methyl-1H-pyrazol-4-yl)-phenyl]-pyrimidin-5-yl}-[1,3,4]thiadiazole-2-carboxylic Acid Methyl Ester Trifluoroacetate] | > 5000 nM | 100 to 1000 nM | 1000 to 5000 nM |
| Cn1cc(-c2cccc(-c3ncc(-c4nnc(C(=O)N5CC[C@@H](O)C5)s4)c(NC4CCCNC4)n3)c2)cn1 (stereo partly drawn) [Example 20, ((R)-3-Hydroxy-pyrrolidin-1-yl)-{5-[2-[3-(1-methyl-1H-pyrazol-4-yl)-phenyl]-4-(piperidin-3-ylamino)-pyrimidin-5-yl]-[1,3,4]thiadiazol-2-yl}-methanone Hydrochloride] | 100 to 1000 nM | 1000 to 5000 nM | 100 to 1000 nM |
| Cn1cc(-c2cccc(-c3ncc(-c4ccn(C)n4)c(O[C@@H]4CCC[C@@H](N)[C@@H]4O)n3)c2)cn1 [Example 132] | 100 to 1000 nM |  | 100 to 1000 nM |
| Cc1nnc(-c2cnc(-c3cccc(-c4cnn(C)c4)c3)nc2NC2CCN(S(C)(=O)=O)CC2)s1 [Example 151] | 100 to 1000 nM |  | 100 to 1000 nM |
| Cn1cc(-c2cccc(-c3ncc(-c4cnn(C)c4)c(N[C@H]4CCN(S(C)(=O)=O)C4)n3)c2)cn1 [Example 170] | 100 to 1000 nM |  | 1000 to 5000 nM |
